Where a SMILES comes first, the peptide text is derived from it. Bridges are numbered along the chain shown (N, C = ends).
Target: chymotrypsin (Bos taurus, UniProt P00766)
Assay: Determination of enzyme inhibitory activity against chymotrypsin (substrate AAPFpNA, OD 405 nm)
Format: biochemical
Details: for IC50: chymotrypsin 30 nM, AAPFpNA 0.5 mM, pH 7.8, 37° C.; for remaining activity at 0.0001 µM: peptide 0.0001 μM; for remaining activity at 0.001 µM: peptide 0.001 μM; for remaining activity at 0.01 µM: peptide 0.01 μM; for remaining activity at 0.02 µM: peptide 0.02 μM; for remaining activity at 0.04 µM: peptide 0.04 μM; for remaining activity at 0.08 µM: peptide 0.08 μM; for remaining activity at 1 µM: peptide 1 μM; for remaining activity at 10 µM: peptide 10 μM; for remaining activity at 0.1 µM: peptide 0.1 μM; for remaining activity at 0.2 µM: peptide 0.2 μM; for remaining activity at 0.5 µM: peptide 0.5 μM; for remaining activity at 100 µM: peptide 100 μM; for remaining activity at 1000 µM: peptide 1000 μM; for remaining activity at 0.4 µM: peptide 0.4 μM; for remaining activity at 0.8 µM: peptide 0.8 μM; for inhibitory activity reduced (fold): relative to CH10
Method: The substrates N-succinyl-Ala-Ala-Pro-Phe-p-nitroaniline (AAPFpNA) is used in competitive binding reaction to determine the inhibitory activities against α -chymotrypsin. Experiments for a-chymotrypsin was measured in 20 mM CaCl2, 50 mM Tris-HCl buffer (pH 7.8). The concentration of the peptide was measured using optical density (OD) at 280 nm. The Michaelis constant (Km) of the enzyme hydrolysis substrate is calculated from the initial rate of substrate hydrolysis at 405 nm. The absorbance value of the substrate was measured at 405 nm after complete hydrolysis. All data were processed using nonlinear regression.
(1) Added a total 190 μL of reaction buffer (20 mM CaCl2, 50 mM Tris-HCl (pH 7.8)), different concentrations of anti-chymorypsin peptides (CHs) into the pre-cold 96 well plate, followed by preheating at 37° C. for 5 min and centrifugated at 500 rpm for 1 min and allowed to stand for 4 minutes. Then added 8 μL of 750 nM chymotrypsin and incubated at 37° C. for 10 min, and centrifugated at 500 rpm for 1 min and allowed to stand for 9 minutes. Finally, added 2 μL of 50 mM AAPFpNA, and mixed by centrifugation at 500 rpm for 1 min. The plate was incubated at 37° C. for 90 min, and the absorbance value at 405 nm was measured. Three repetitions were made, and only reaction buffer and substrate were added in the blank control as the minimum absorption value (Min OD 405 nm); Only reaction buffer, enzyme and substrate were added in the negative control as the maximum absorption value (Max OD 405 nm).
(2) In the 200 μL of reaction system, the final concentrations of chymotrypsin and AAPFpNA were 30 nM and 0.5 mM, respectively.
Plotted the residual activity of enzyme with […] to obtain the half inhibitory concentration (IC50) of anti-chymorypsin peptides (CHs). Then, substituted it into the formula […]/(1+S/Km) (S, IC50, and Km were substrate concentration, half inhibitory concentration, and Michaelis constant, respectively) to obtain the inhibition constant Ki of anti-chymorypsin peptides (CHs).

[1] = read-out: Residual activity of chymotrypsin

| SMILES | Ki | IC50 | remaining activity at 0.0001 µM [1] | remaining activity at 0.001 µM [1] | remaining activity at 0.01 µM [1] | remaining activity at 1 µM [1] | remaining activity at 10 µM [1] | remaining activity at 0.1 µM [1] | remaining activity at 0.2 µM [1] | remaining activity at 100 µM [1] | remaining activity at 1000 µM [1] | other results |
| --- | --- | --- | --- | --- | --- | --- | --- | --- | --- | --- | --- | --- |
| CC[C@H](C)[C@@H]1NC(=O)[C@@H]2CCCN2C(=O)[C@@H]2CCCN2C(=O)[C@H]([C@@H](C)CC)NC(=O)[C@H](CO)NC(=O)[C@H](Cc2ccc(O)cc2)NC(=O)[C@H]([C@@H](C)O)NC(=O)[C@@H](NC(=O)[C@H](CCCNC(=N)N)NC(=O)CN)CSSC[C@@H](C(=O)N[C@@H](Cc2ccccc2)C(=O)O)NC1=O [CH57] (H-GRCTYSIPPICF-OH; disulfide 3-11; C-terminus assumed) | 20 nM | 40 nM | 99 ± 1.3% | 100.2 ± 0.3% | 98 ± 5.1% | 0.9 ± 0.3% | -0.2 ± 0.2% |  |  |  |  | remaining activity at 0.02 µM [1]: 66 ± 7.5%; remaining activity at 0.04 µM [1]: 48.4 ± 5.8%; remaining activity at 0.06 µM (peptide 0.06 μM, read-out: Residual activity of chymotrypsin): 38.1 ± 7.9%; remaining activity at 0.08 µM [1]: 19.1 ± 4.6% |
| CC[C@H](C)[C@@H]1NC(=O)[C@H](CO)NC(=O)[C@H](Cc2ccc(O)cc2)NC(=O)[C@H]([C@@H](C)O)NC(=O)[C@@H](NC(=O)[C@H](C)N)CSSC[C@@H](C(=O)N[C@@H](Cc2ccccc2)C(=O)O)NC(=O)[C@H](CCCCN)NC(=O)[C@H](C)NC(=O)[C@@H]2CCCN2C1=O [CH18] (H-ACTYSIPAKCF-OH; disulfide 2-10; C-terminus assumed) | 200 nM | 470 nM |  | 103.6 ± 0.2% | 102 ± 3.7% |  | 3.4 ± 0.5% | 102 ± 2.4% | 90.3 ± 4.1% | 0.3 ± 0.1% | 0.1 ± 0.1% | remaining activity at 0.5 µM [1]: 49.4 ± 3.7%; remaining activity at 2.5 µM (peptide 2.5 μM, read-out: Residual activity of chymotrypsin): 3.7 ± 0.5% |
| CC[C@H](C)[C@@H]1NC(=O)[C@@H]2CCCN2C(=O)[C@@H]2CCCN2C(=O)[C@H]([C@@H](C)CC)NC(=O)[C@H](CO)NC(=O)[C@H](Cc2ccc(O)cc2)NC(=O)[C@H]([C@@H](C)O)NC(=O)[C@@H](NC(=O)[C@@H](N)[C@@H](C)O)CSSC[C@@H](C(=O)N[C@@H](CC(N)=O)C(=O)O)NC1=O [CH63] (H-TCTYSIPPICN-OH; disulfide 2-10; C-terminus assumed) | 1320 nM | 3050 nM |  |  |  |  |  |  |  |  |  |  |
| CC[C@H](C)[C@@H]1NC(=O)[C@@H]2CCCN2C(=O)[C@@H]2CCCN2C(=O)[C@H]([C@@H](C)CC)NC(=O)[C@H](CO)NC(=O)[C@H](Cc2ccccc2)NC(=O)[C@H]([C@@H](C)O)NC(=O)[C@@H](NC(=O)[C@@H](NC(=O)CN)[C@@H](C)O)CSSC[C@@H](C(=O)N[C@@H](CC(N)=O)C(=O)N2CCC[C@H]2C(=O)N[C@@H](CC(N)=O)C(=O)O)NC1=O [CH25] (H-GTCTFSIPPICNPN-OH; disulfide 3-11; C-terminus assumed) |  |  | 99.7 ± 1% | 100 ± 1.9% | 96.9 ± 1.4% | 15.4 ± 1.2% | 1.5 ± 0.3% |  | 63.1 ± 4.1% | 0.2 ± 0.2% | 0.2 ± 0.1% | remaining activity at 0.3 µM (peptide 0.3 μM, read-out: Residual activity of chymotrypsin): 44.6 ± 4.9% |
| CC[C@H](C)[C@@H]1NC(=O)[C@@H]2CCCN2C(=O)[C@@H]2CCCN2C(=O)[C@H]([C@@H](C)CC)NC(=O)[C@H](CO)NC(=O)[C@H](Cc2ccc(O)cc2)NC(=O)[C@H]([C@@H](C)O)NC(=O)[C@H](C)NC(=O)[C@H](CCCNC(=N)N)NC(=O)CNC(=O)[C@@H](N)CSSC[C@@H](C(=O)N[C@@H](Cc2ccccc2)C(=O)N2CCC[C@H]2C(=O)N[C@@H](CC(=O)O)C(=O)O)NC1=O [CH65] (H-CGRATYSIPPICFPD-OH; disulfide 1-12; C-terminus assumed) | 210 nM | 480 nM |  | 99.8 ± 2% |  | 8.9 ± 1.4% | 4.1 ± 2.3% | 97.8 ± 4.4% |  | 0.1 ± 0.1% | 0.2% | remaining activity at 0.25 µM (peptide 0.25 μM, read-out: Residual activity of chymotrypsin): 89.5 ± 2.9%; remaining activity at 0.5 µM [1]: 48.2 ± 3.6%; remaining activity at 0.75 µM (peptide 0.75 μM, read-out: Residual activity of chymotrypsin): 11.7 ± 1.4% |
| CC[C@H](C)[C@@H]1NC(=O)[C@H](CO)NC(=O)[C@H](Cc2ccc(O)cc2)NC(=O)[C@H]([C@@H](C)O)NC(=O)[C@@H](NC(=O)[C@@H](N)Cc2ccccc2)CSSC[C@@H](C(=O)N[C@@H](CCCNC(=N)N)C(=O)O)NC(=O)[C@H](CCC(N)=O)NC(=O)[C@@H]2CCCN2C(=O)[C@@H]2CCCN2C1=O [CH35] (H-FCTYSIPPQCR-OH; disulfide 2-10; C-terminus assumed) | 190 nM | 450 nM |  | 100.8 ± 0.9% | 101 ± 1.2% | 16.6 ± 4.7% | 2.6 ± 0.2% | 101 ± 2.6% | 78.9 ± 2.9% | 0% |  | remaining activity at 0.4 µM [1]: 58.8 ± 3.4%; remaining activity at 0.8 µM [1]: 27.3 ± 2.9%; inhibitory activity reduced (fold): ~7 times |
| CC[C@H](C)[C@@H]1NC(=O)[C@@H]2CCCN2C(=O)[C@@H]2CCCN2C(=O)[C@H]([C@@H](C)CC)NC(=O)[C@H](CO)NC(=O)[C@H](Cc2ccccc2)NC(=O)[C@H]([C@@H](C)O)NC(=O)[C@H](C)NC(=O)[C@H](CCCNC(=N)N)NC(=O)CNC(=O)[C@@H](N)CSSC[C@@H](C(=O)N[C@@H](Cc2ccccc2)C(=O)O)NC1=O [CH71] (H-CGRATFSIPPICF-OH; disulfide 1-12; C-terminus assumed) | 180 nM | 410 nM |  | 101.4 ± 0.6% | 100.6 ± 1% | 20.7 ± 1.3% | 0.8 ± 0.2% | 100.3 ± 0.5% | 81.7 ± 3.3% | 0.1 ± 0.1% |  | remaining activity at 0.4 µM [1]: 49.9 ± 6.6%; remaining activity at 0.8 µM [1]: 23.6 ± 1.5% |
| CC[C@H](C)[C@@H]1NC(=O)[C@H](CO)NC(=O)[C@H](Cc2ccccc2)NC(=O)[C@H]([C@@H](C)O)NC(=O)[C@@H](NC(=O)[C@@H](N)CO)CSSC[C@@H](C(=O)N[C@@H](Cc2ccc(O)cc2)C(=O)NCC(=O)O)NC(=O)[C@H](CCC(N)=O)NC(=O)[C@@H]2CCCN2C(=O)[C@@H]2CCCN2C1=O [CH11] (H-SCTFSIPPQCYG-OH; disulfide 2-10; C-terminus assumed) | 150 nM | 350 nM |  | 98.5 ± 3.1% | 104 ± 1.8% | 17.6 ± 0.8% | 6.5 ± 0.3% | 95.3 ± 3% |  | 1.1 ± 0.2% |  | remaining activity at 0.15 µM (peptide 0.15 μM, read-out: Residual activity of chymotrypsin): 82.3 ± 3.3%; remaining activity at 5 µM (peptide 5 μM, read-out: Residual activity of chymotrypsin): 12.5 ± 0.7%; remaining activity at 300 µM (peptide 300 μM, read-out: Residual activity of chymotrypsin): 0.2 ± 0.6%; inhibitory activity reduced (fold): ~7 times |
| CC[C@H](C)[C@@H]1NC(=O)[C@@H]2CCCN2C(=O)[C@@H]2CCCN2C(=O)[C@H]([C@@H](C)CC)NC(=O)[C@H](CO)NC(=O)[C@H](Cc2ccccc2)NC(=O)[C@H]([C@@H](C)O)NC(=O)[C@@H](NC(=O)[C@H](CCCNC(=N)N)NC(=O)CN)CSSC[C@@H](C(=O)N[C@@H](Cc2ccccc2)C(=O)N2CCC[C@H]2C(=O)N[C@@H](CC(=O)O)C(=O)O)NC1=O [CH54] (H-GRCTFSIPPICFPD-OH; disulfide 3-11; C-terminus assumed) | 10 nM | 30 nM | 100.6 ± 0.9% | 101.7 ± 0.6% | 100 ± 2.9% | 0.4 ± 0.2% | -0.1% | 13.8 ± 3.3% |  |  |  | remaining activity at 0.02 µM [1]: 68.8 ± 4%; remaining activity at 0.04 µM [1]: 34.2 ± 3.9%; remaining activity at 0.08 µM [1]: 15.2 ± 1.9% |
| CC[C@H](C)[C@@H]1NC(=O)[C@@H]2CCCN2C(=O)[C@@H]2CCCN2C(=O)[C@H]([C@@H](C)CC)NC(=O)[C@H](CO)NC(=O)[C@H](Cc2ccc(O)cc2)NC(=O)[C@H]([C@@H](C)O)NC(=O)[C@@H](NC(=O)[C@@H](N)CCCNC(=N)N)CSSC[C@@H](C(=O)N[C@@H](Cc2ccccc2)C(=O)O)NC1=O [CH58] (H-RCTYSIPPICF-OH; disulfide 2-10; C-terminus assumed) | 120 nM | 270 nM |  |  |  |  |  |  |  |  |  |  |
